From patent US9302999B2, “Substituted triazoles as herbicides” (E. I. DU PONT DE NEMOURS AND COMPANY, priority 2012, dated 2016)
Like-named read-outs stand apart in the source and are kept apart here.

How the values were obtained:
Assay type in all cases: in vivo
[1] = tested on: velvetleaf (Abutilon theophrasti); test: Test A pre-/postemergence: velvetleaf; conditions: for pest or weed control at 125 g/ha / pest or weed control at 500 g/ha: Abutilon theophrasti, 240 h
Procedure, shortened: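 Rating scale 0–100 (100 = complete control), visual, ~10 days after application in the greenhouse. Applications: preemergence directed soil spray; postemergence at 1–2 leaves.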

[2] = tested on: rice (Oryza sativa); test: Test B flooded paddy: rice; conditions: Flood; 250 g ai/ha; applied to paddy water at 2-leaf stage; visually evaluated after 13 to 15 days
Procedure, shortened: (§1)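 Plants were grown to the 2-leaf stage and pots flooded to 3 cm above soil. Compounds were applied directly into the paddy water, with depth kept for the test. After 13–15 days in greenhouse, response was rated visually against controls on a 0 (no effect) to 100 (complete control) scale.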

[3] = tested on: barnyardgrass (Echinochloa crus-galli); test: Test B flooded paddy: barnyardgrass; conditions: Flood; 250 g ai/ha; applied to paddy water at 2-leaf stage; visually evaluated after 13 to 15 days
Procedure, shortened: as §1

[4] = tested on: foxtail, green (green foxtail, Setaria viridis); test: Test C pre-/postemergence: foxtail, green; conditions: Postemergence
From the text: (§2) Seeds of plant species selected from blackgrass (Alopecurus myosuroides), bromegrass, downy (downy bromegrass, Bromus tectorum), foxtail, green (green foxtail, Setaria viridis), ryegrass, Italian (Italian ryegrass, Lolium multiflorum), winter wheat (Triticum aestivum), wild oat (Avena fatua), galium (catchweed bedstraw, Galium aparine), bermudagrass (Cynodon dactylon), surinam grass (Brachiaria decumbens), cocklebur (common cocklebur, Xanthium strumarium), corn (Zea mays), large crabgrass (Digitaria sanguinalis), woolly cupgrass (Eriochloa villosa), foxtail, giant (giant foxtail, Setaria faberii), goosegrass (Eleusine indica), johnsongrass (Sorghum halepense), kochia (Kochia scoparia), lambsquarters (Chenopodium album), morningglory (Ipomoea coccinea), nightshade (eastern black nightshade, Solanum ptycanthum), nutsedge, yellow (yellow nutsedge, Cyperus esculentus), pigweed (Amaranthus retroflexus), ragweed (common ragweed, Ambrosia elation), soybean (Glycine max), common (oilseed) sunflower (Helianthus annuus), Russian thistle (Salsola kali) and velvetleaf (Abutilon theophrasti) were planted into a blend of loam soil and sand and treated preemergence with test chemicals formulated in a non-phytotoxic solvent mixture which included a surfactant.
(§3) At the same time, plants selected from these crop and weed species and also barley (winter barley, Hordeum vulgare), canarygrass (Phalaris minor), chickweed (common chickweed, Stellaria media) windgrass (Apera spica-venti) and deadnettle (henbit deadnettle, Lamium amplexicaule) were planted in pots containing Redi-Earth® planting medium (Scotts Company, 14111 Scottslawn Road, Marysville, Ohio 43041) comprising spaghnum peat moss, vermiculite, wetting agent and starter nutrients and treated with postemergence applications of test chemicals formulated in the same manner. Plants ranged in height from 2 to 18 cm (1- to 4-leaf stage) for postemergence treatments.
(§4) Treated plants and controls were maintained in a greenhouse for 13 to 15 days, after which time all species were compared to controls and visually evaluated. Plant response ratings, summarized in Table C, are based on a scale of 0 to 100 where 0 is no effect and 100 is complete control. A dash (-) response means no test result.

[5] = tested on: winter wheat (Triticum aestivum); test: Test C pre-/postemergence: winter wheat; conditions: Postemergence
From the text: as §2, §3, §4

[6] = tested on: wild oat (Avena fatua); test: Test C pre-/postemergence: wild oat; conditions: Postemergence
From the text: as §2, §3, §4

[7] = tested on: galium (catchweed bedstraw, Galium aparine); test: Test C pre-/postemergence: galium; conditions: Postemergence
From the text: as §2, §3, §4

[8] = tested on: pigweed (Amaranthus retroflexus); test: Test C pre-/postemergence: pigweed; conditions: Postemergence
From the text: as §2, §3, §4

[9] = tested on: velvetleaf (Abutilon theophrasti); test: Test C pre-/postemergence: velvetleaf; conditions: Postemergence
From the text: as §2, §3, §4

[10] = post-emergence, Postemergence, 125 g ai/ha, 0 to 100 scale, 0 is no effect, 100 is complete control, read-out: Velvetleaf plant response rating
[11] = post-emergence, Postemergence, 500 g ai/ha, visual rating on 0 to 100 scale (0 no effect, 100 complete control), approximately ten days, read-out: Velvetleaf plant response rating
[12] = pre-emergence, Preemergence, 125 g ai/ha, 0 to 100 scale (0 no effect, 100 complete control), read-out: Plant response rating, Velvetleaf
[13] = pre-emergence, Preemergence, 500 g ai/ha, 0 to 100 scale, 0 is no effect, 100 is complete control, read-out: Plant response rating, Velvetleaf
[14] = Postemergence, 125 g ai/ha, 0 to 100 scale, 0 is no effect, 100 is complete control
[15] = Postemergence, 500 g ai/ha, visual rating on 0 to 100 scale (0 no effect, 100 complete control), approximately ten days
[16] = 31 g ai/ha, scale 0 to 100 (0 no effect, 100 complete control)
[17] = 62 g ai/ha, scale 0 to 100 (0 no effect, 100 complete control)
[18] = 125 g ai/ha, scale 0 to 100, 0 no effect, 100 complete control
[19] = pre-emergence, Preemergence, 125 g ai/ha, 0 to 100 scale where 0 is no effect and 100 is complete control, read-out: Plant response rating, Velvetleaf
[20] = pre-emergence, Preemergence, 500 g ai/ha, 0 to 100 scale (0 no effect, 100 complete control), read-out: Plant response rating, Velvetleaf

Compound | pest or weed control at 125 g/ha [1, 10] | pest or weed control at 500 g/ha [1, 11] | pest or weed control at 125 g/ha [1, 12] | pest or weed control at 500 g/ha [1, 13] | Plant response rating, Rice (0 to 100 scale, 0 is no effect, 100 is complete control) [2] | Plant response rating, Barnyardgrass (0 to 100 scale, 0 is no effect, 100 is complete control) [3] | Velvetleaf plant response rating [1, 15] | Plant response rating, Foxtail, Green [4, 16] | Plant response rating, Foxtail, Green [4, 17] | Plant response rating, Foxtail, Green [4, 18] | Plant response rating, Foxtail, Green ([4]; 250 g ai/ha, scale 0 to 100) | Plant response rating, Wheat [5, 16] | Plant response rating, Wheat [5, 17] | Plant response rating, Wheat [5, 18] | Plant response rating, Wheat ([5]; 250 g ai/ha, scale 0 to 100) | Plant response rating, Oat, Wild [6, 16] | Plant response rating, Oat, Wild [6, 17] | Plant response rating, Oat, Wild [6, 18] | Plant response rating, Oat, Wild ([6]; 250 g ai/ha, scale 0 to 100) | Plant response rating, Galium [7, 16] | also measured
Cc1nn(-c2ccc(F)cc2F)nc1Cc1ccnc(C(F)(F)F)c1 [Compound 54, 4-[[2-(2,4-difluorophenyl)-5-methyl-2H-1,2,3-triazol-4-yl]methyl]-2-(trifluoromethyl)pyridine] | 90% | 100% | 30% | 60% | 30 | 30 | – | – | – | – | – | – | – | – | – | – | – | – | – | – | –
Cc1nn(-c2ccnc(Cl)c2)nc1Cc1ccnc(C(F)(F)F)c1 [Compound 141] | – | – | – | – | 35 | 20 | 90 | 100 | 100 | 100 | 100 | 10 | 15 | 20 | 20 | 10 | 15 | 45 | 70 | 85 | Plant response rating, Velvetleaf [1, 14]: 70; Plant response rating, Velvetleaf ([1]; Preemergence, 125 g ai/ha, 0 to 100 scale where 0 is no effect and 100 is complete control): 20; Plant response rating, Velvetleaf ([1]; Preemergence, 500 g ai/ha, 0 to 100 scale (0 no effect, 100 complete control)): 60; Plant response rating, Galium [7, 17]: 85; Plant response rating, Galium [7, 18]: 90; Plant response rating, Galium ([7]; 250 g ai/ha, scale 0 to 100): 90; Plant response rating, Pigweed [8, 16]: 95; Plant response rating, Pigweed [8, 17]: 95; Plant response rating, Pigweed [8, 18]: 98; Plant response rating, Pigweed ([8]; 250 g ai/ha, scale 0 to 100): 98; Plant response rating, Velvetleaf [9, 16]: 40; Plant response rating, Velvetleaf [9, 17]: 55; Plant response rating, Velvetleaf [9, 18]: 60; Plant response rating, Velvetleaf ([9]; 250 g ai/ha, scale 0 to 100): 60
Cc1nn(-c2ccc(C(F)(F)F)cc2)nc1Oc1csc(C(F)(F)F)c1 [Compound 1, 4-methyl-2-[4-(trifluoromethyl)phenyl]-5-[[5-(trifluoromethyl)-3-thienyl]oxy]-2H-1,2,3-triazole] | 30% | 70% | 0% | 10% | – | – | – | – | – | – | – | – | – | – | – | – | – | – | – | – | –
FCc1nn(-c2ccc(C(F)(F)F)cc2)nc1Oc1cccc(OC(F)(F)F)c1 [Compound 116, 4-(fluoromethyl)-5-[3-(trifluoromethoxy)phenoxy]-2-[4-(trifluoromethyl)phenyl]-2H-1,2,3-triazole] | 20% | 50% | – | – | – | – | – | – | – | – | – | – | – | – | – | – | – | – | – | – | pest or weed control at 125 g/ha [1, 19]: 0%; pest or weed control at 500 g/ha [1, 20]: 20%
COCc1nn(-c2ccc(C(F)(F)F)cc2)nc1Oc1cccc(OC(F)(F)F)c1 [Compound 115, 4-(methoxymethyl)-5-[3-(trifluoromethoxy)phenoxy]-2-[4-(trifluoromethyl)phenyl]-2H-1,2,3-triazole] | 10% | 30% | – | – | – | – | – | – | – | – | – | – | – | – | – | – | – | – | – | – | pest or weed control at 125 g/ha [1, 19]: 0%; pest or weed control at 500 g/ha [1, 20]: 20%
FC(F)(F)c1ccc(-n2nc(Cl)c(Cc3ccnc(C(F)(F)F)c3)n2)cc1 [Compound 28] | – | – | – | – | 80 | 90 | 100 | 30 | 70 | 70 | 85 | 5 | 10 | 10 | 20 | 10 | 15 | 40 | 70 | 40 | Velvetleaf plant response rating [1, 14]: 80; Plant response rating, Velvetleaf ([1]; Preemergence, 125 g ai/ha, 0 to 100 scale (0 no effect, 100 complete control)): 20; Plant response rating, Velvetleaf ([1]; Preemergence, 500 g ai/ha, 0 to 100 scale, 0 is no effect, 100 is complete control): 80; Plant response rating, Galium [7, 17]: 55; Plant response rating, Galium [7, 18]: 70; Plant response rating, Galium ([7]; 250 g ai/ha, scale 0 to 100): 80; Plant response rating, Pigweed [8, 16]: 55; Plant response rating, Pigweed [8, 17]: 55; Plant response rating, Pigweed [8, 18]: 55; Plant response rating, Pigweed ([8]; 250 g ai/ha, scale 0 to 100): 98; Plant response rating, Velvetleaf [9, 16]: 20; Plant response rating, Velvetleaf [9, 17]: 25; Plant response rating, Velvetleaf [9, 18]: 35; Plant response rating, Velvetleaf ([9]; 250 g ai/ha, scale 0 to 100): 50
